Test results published in US20060252798A1, “Metal ion chelators and therapeutic use thereof” (priority 2003, published 2006).
Where two headings read alike, the source gives them in different places.

Legend:
DU 145 prostate cancer = experiment: MTT cellular proliferation assay, DU 145; type: cell-based; conditions: 72 h, 2 experiments
Procedure: (§1) The final concentration of the compounds was 0.39-50 μM. […] […] After this incubation, 0.01 mL of MTT was added to each well and the plates incubated for 2 h at 37° C. The cells were then solubilised by adding 0.1 mL of 10% SDS-50% isobutanol in 0.01 M HCl and the plates then read at 570 nm on a scanning multiwell spectrophotometer (Titertek Multiscan; Beckman Instruments Inc, California). MTT colour formation was directly proportional to the number of viable cells.
(§2) At the end of the incubation period, cell density was determined by the MTT assay (described above).

[1] = tested on: SK-N-MC neuroepithelioma cells; experiment: MTT cellular proliferation assay, SK-N-MC; type: cell-based, human
IMR-32 Neuroblastoma = experiment: MTT cellular proliferation assay, IMR-32; type: cell-based; conditions: 72 h, 1 experiment
Procedure: as §1, §2

[2] = tested on: MCF-7 breast cancer cells; experiment: MTT cellular proliferation assay, MCF-7; type: cell-based, human
SK-Mel-28 melanoma cells = experiment: MTT cellular proliferation assay, SK-Mel-28; type: cell-based, human
Ndrg1 = Ndrg1 expression in MCF-7 cells (Western blotting); type: cell-based, human; conditions: 25 μM, 24 h, MCF-7 cells (FIG. 16)
Procedure: FIG. 16. […] The expression of Ndrg1 and β-actin protein levels were assessed by Western blotting.
MCF-7 cells were incubated for 24 h with a range of metal ion chelators. […] Dp2mT was used as a negative control, […]

M109 carcinoma cells [3] = experiment: 59Fe uptake from 59Fe-Tf by M109 cells; type: cell-based, mouse
Procedure: (§3) The ability of the compound Dp44mT to inhibit the growth of M109 lung carcinoma cells in mice was assessed. Studies were performed using M109 carcinoma cells in culture to determine the effect of Dp44mT on mobilising ^59Fe from these cells (FIG. 11C) and inhibiting ^59Fe uptake from ^59Fe-Tf (FIG. 11D). As internal controls, cells were incubated with DFO and 311. The effect of compound concentration on increasing ^59Fe mobilisation from M109 cells was examined by labelling cells with ^59Fe-Tf (0.75 μM) for 3 h at 37° C. followed by washing and reincubation with the respective compounds (0.2-25 μM) for 3 h at 37° C. (FIG. 11C). […] In contrast, 311 increased cellular ^59Fe release from 8±1% (control medium) to […] at 5 μM (FIG. 11C). For Dp44mT ^59Fe release plateaued at 2 μM, resulting in the efflux of 48±2% of ^59Fe (FIG. 11C).
At 1 μM, 311 reduced ^59Fe uptake to 40±4% of the control. […] Dp44mT had similar activity to 311 up to a concentration of 5 μM, where it reduced ^59Fe uptake to 30±1% of the control (FIG. 11D).

[4] = tested on: SK-N-MC neuroepithelioma cells; experiment: 59Fe mobilization from prelabelled SK-N-MC neuroepithelioma cells; type: cell-based, human; conditions: chelators 25 μM, 3 h at 37° C.; media alone released 5% (FIG. 11A)
Procedure: The effect of chelators on ^59Fe release from prelabelled cells was studied using standard procedures.^18 Cells were prelabelled with ^59Fe-transferrin (0.75 μM) for 3 h at 37° C. […] The overlying medium was then removed and placed into γ-counting tubes. The cells were removed from the petri dishes in 1 ml of BSS using a plastic spatula and transferred to a separate set of γ-counting tubes.
The ability of the compounds to mobilise ^59Fe from SK-N-MC neuroepithelioma cells was assessed after a 3 h labelling period with ^59Fe-Tf (0.75 μM) at 37° C. […]
DFO and 311 were used as internal standards.

MRC-5 fibroblasts = experiment: MTT cellular proliferation assay, MRC-5 fibroblasts; type: cell-based, human; conditions: Table 3, normal cells, 72 h, MTT, read-out: IC50 MRC-5 fibroblasts
Procedure: as §1
The MRC-5 cell type is a normal human lung fibroblast cell strain that is mortal and senesces after a number of passages in vitro. The SK-N-MC neuroepithelioma cell type is immortal.
Dp2mT served as a negative control.

H69AR lung cancer = experiment: MTT cellular proliferation assay, H69AR; type: cell-based; conditions: 0-50 μM, 72 h, 1 experiment
Procedure: as §1, §2

HEP G2 Hepatoma = experiment: MTT cellular proliferation assay, HEP G2; type: cell-based; conditions: 72 h, 1 experiment
Procedure: as §1, §2

NCI H2452 mesothelioma = experiment: MTT cellular proliferation assay, NCI H2452; type: cell-based; conditions: 72 h, 3 experiments
Procedure: as §1, §2

M109 carcinoma cells [5] = experiment: 59Fe mobilisation from prelabelled M109 cells; type: cell-based, mouse; conditions: 3 h, control medium 8±1%
Procedure: as §3

`CC(=O)N(O)CCCCCNC(=O)CCC(=O)N(O)CCCCCNC(=O)CCC(=O)N(O)CCCCCN` [DFO, desferrioxamine] was tested. Which IC50 (DU 145 prostate cancer; Homo sapiens, DU-145, 0-50 μM) did it give?
Its IC50 is 15.8 µM.

What about the IC50 ([1]; Homo sapiens, SK-N-MC, 72 h, Table 3, 0-25 μM, 72 h, MTT, mean ± SD, read-out: IC50 SK-N-MC neuroepithelioma) of the same compound?
The IC50 was 5 µM.

And the IC50 ([1]; Homo sapiens, SK-N-MC, 90 h, Table 2, MTT assay, 90 h incubation, Mean ± SD, 4 experiments, read-out: IC50 Values of Chelators)?
Its IC50 is greater than 50 µM.

And the IC50 (IMR-32 Neuroblastoma; Homo sapiens, IMR-32, 0-50 μM)?
Its IC50 is 9.38 µM.

And the IC50 ([2]; Homo sapiens, MCF7, 72 h, Table 3, 72 h, MTT, mean ± SD, read-out: IC50 MCF-7 breast cancer)?
The IC50 was 14 ± 9 µM.

And the IC50 ([2]; Homo sapiens, MCF7, values given in Example 8 text, read-out: IC50, anti-proliferative activity in MCF-7 cells)?
Its IC50 is 20 µM.

And the IC50 (SK-Mel-28 melanoma cells; Homo sapiens, SK-MEL-28, 72 h, Table 3, mean ± SD)?
The IC50 was 15 ± 7 µM.

And the “up-regulation of Ndrg1” value (Ndrg1)?
Its value is “no effect”.

And the “inhibition of 59Fe uptake” value (M109 carcinoma cells [3]; 0.2-25 μM (FIG. 11D))?
Its value is “little effect”.

What about the “efflux/mobilisation of total cellular 59Fe” value [4] of the same compound?
Its value is 11%.

What about the IC50 (MRC-5 fibroblasts; Homo sapiens, MRC5) of the same compound?
The IC50 was greater than 25 µM.

And the IC50 (H69AR lung cancer; Homo sapiens, H69AR)?
Its IC50 is greater than 50 µM.

And the IC50 (HEP G2 Hepatoma; Homo sapiens, HepG2, 0-50 μM)?
The IC50 was 18.7 µM.

And the IC50 (NCI H2452 mesothelioma; Homo sapiens, NCI-H2452, 0-50 μM)?
Its IC50 is 32.3 µM.

And the “59Fe released from cells” value (M109 carcinoma cells [5]; 25 μM)?
The value was 12±1%.

`CN(C)C(=S)NN=C(c1ccccn1)c1ccccn1` [Dp44mT, di-2-pyridylketone 4,4-dimethyl-3-thiosemicarbazone] was tested. Which IC50 (DU 145 prostate cancer; 0-50 μM) did it give?
Its IC50 is 0.06 µM.

And the IC50 ([1]; Table 3, 0-25 μM, 72 h, MTT, mean ± SD, read-out: IC50 SK-N-MC neuroepithelioma)?
Its IC50 is 0.03 ± 0.01 µM.

And the IC50 (IMR-32 Neuroblastoma; 0-50 μM)?
The IC50 was 0.01 µM.

And the IC50 ([2]; Table 3, 72 h, MTT, mean ± SD, read-out: IC50 MCF-7 breast cancer)?
The IC50 was 0.06 ± 0.01 µM.

What about the IC50 ([2]; values given in Example 8, read-out: IC50, anti-proliferative activity in MCF-7 cells) of the same compound?
The IC50 was 0.1 µM.

What about the IC50 (SK-Mel-28 melanoma cells; Table 3, 72 h, mean ± SD) of the same compound?
The IC50 was 0.06 ± 0.03 µM.

And the “up-regulation of Ndrg1” value (Ndrg1)?
The value was “markedly increased”.

What about the 59Fe uptake (M109 carcinoma cells [3]; 5 μM) of the same compound?
Its 59Fe uptake is 30±1 % of the control.

What about the “efflux/mobilisation of total cellular 59Fe” value [4] of the same compound?
Its value is 47%.

What about the IC50 (MRC-5 fibroblasts) of the same compound?
Its IC50 is greater than 25 µM.

And the IC50 (H69AR lung cancer)?
Its IC50 is 0.05 µM.

What about the IC50 (HEP G2 Hepatoma; 0-50 μM) of the same compound?
Its IC50 is 1.36 µM.

What about the IC50 (NCI H2452 mesothelioma; 0-50 μM) of the same compound?
The IC50 was 0.01 µM.

And the “efflux of 59Fe (plateau)” value (M109 carcinoma cells [5]; 2 μM)?
Its value is 48±2%.
